Measurements: US8394848B2, “Compounds that modulate intracellular calcium” (Calcimedica, Inc., priority 2008, dated 2013)

Tested on: JR251 or RBL cells
Test: Store-operated calcium entry, either JR251 or RBL cells, or both
Assay type: cell-based
Method: The day prior to performing the assay, RBL-2H3 cells are plated in 50 μL of complete medium in a 384 well plate. Cells are grown at 37° C./6% CO2 overnight and grow to 50-60% confluence by the next day. On the assay day, 1.5 μM Fluo-4-AM dye (Invitrogen) in complete medium is added and incubated for 1 hour at RT. Cells are washed twice in Ca^2+-free HBSS buffer and 35 μL Ca^2+-free HBSS buffer is added to each well. 10 μL of a test compound prepared in a Ca^2+-free HBSS solution at 4.5× of the desired concentration is added to a well and incubated for 5 minutes at RT. 10 μL of thapsigargin prepared in a Ca^2+-free HBSS solution at 5.5× of the desired concentration (5.5 uM) is added to each well and incubated for an additional 25 minutes. The initial baseline fluorescence signal is measured with a FLIPR^384 (Molecular Devices) plate reader. 5 μL of 12× calcium in HBSS (12 mM) is added and changes in cellular fluorescence are measured with the FLIPR^384 plate reader. In each well, the change in the fluorescent signal as a function of time due to calcium entry into the cell is determined by calculating the difference between the fluorescent signal measured 7 seconds after calcium addition and the initial baseline fluorescence signal at time zero (t=0). This parameter is designated Upslope. The IC50 value is calculated as the concentration at which 50% of the Upslope is inhibited.

| IC50 [µM] | Structure (SMILES) |
| --- | --- |
| < 10 | O=C(O)c1c(-c2ccc(Br)cc2)csc1NC(=O)C1Cc2ccccc2O1 (stereo not shown) [4-(4-bromophenyl)-2-(2,3-dihydrobenzofuran-2-carboxamido)thiophene-3-carboxylic acid] |
| < 10 | O=C(Nc1scc(-c2ccc(Cl)cc2)c1C(=O)O)c1ccc2snnc2c1 [2-(benzo[d][1,2,3]thiadiazole-5-carboxamido)-4-(4-chlorophenyl)thiophene-3-carboxylic acid] |
| < 10 | N#Cc1ccc(-c2csc(NC(=O)c3ccc4snnc4c3)c2C(=O)O)cc1 [2-(benzo[d][1,2,3]thiadiazole-5-carboxamido)-4-(4-cyanophenyl)thiophene-3-carboxylic acid] |
| < 10 | N#Cc1ccc(-c2csc(NC(=O)CCc3ccccc3)c2C(=O)O)cc1 [4-(4-cyanophenyl)-2-(3-phenylpropanamido)thiophene-3-carboxylic acid] |
| < 10 | Cc1ccc(-c2csc(NC(=O)c3nc4ccccc4o3)c2C(=O)O)c(F)c1F [2-(benzo[d]oxazole-2-carboxamido)-4-(2,3-difluoro-4-methylphenyl)thiophene-3-carboxylic acid] |
| < 10 | Cc1nn(C)c2sc(C(=O)Nc3scc(-c4ccc(Br)cc4)c3C(=O)O)cc12 [4-(4-bromophenyl)-2-(1,3-dimethyl-1H-thieno[2,3-c]pyrazole-5-carboxamido)thiophene-3-carboxylic acid] |
| < 10 | O=C(CCc1ccccc1F)Nc1scc(-c2ccc(Cl)cc2)c1C(=O)O [4-(4-chlorophenyl)-2-(3-(2-fluorophenyl)propanamido)thiophene-3-carboxylic acid] |
| < 10 | O=C(Nc1scc(-c2ccc(Cl)cc2)c1C(=O)O)/C(F)=C/c1ccccc1 [(Z)-4-(4-chlorophenyl)-2-(2-fluoro-3-phenylacryl amido)thiophene-3-carboxylic acid] |
| < 10 | O=C(CSc1ccccc1)Nc1scc(-c2ccccc2Br)c1C(=O)O [4-(2-bromophenyl)-2-(2-(phenylthio)acetamido)thiophene-3-carboxylic acid] |
| < 10 | O=C(Nc1scc(-c2ccc(Br)cc2)c1C(=O)O)c1ccnnc1 [4-(4-bromophenyl)-2-(pyridazine-4-carboxamido)thiophene-3-carboxylic acid] |
| < 10 | O=C(CSc1ccccc1)Nc1scc(-c2ccc(Br)cc2)c1C(=O)O [4-(4-bromophenyl)-2-(2-(phenylthio)acetamido)thiophene-3-carboxylic acid] |
| < 10 | N#C/C(=C\c1ccccc1)C(=O)Nc1scc(-c2ccc(Cl)cc2)c1C(=O)O [(E)-4-(4-chlorophenyl)-2-(2-cyano-3-phenylacrylamido)thiophene-3-carboxylic acid] |
| < 10 | N#Cc1c(Cl)ccc(-c2csc(NC(=O)c3cc4ccccc4o3)c2C(=O)O)c1Cl [2-(benzofuran-2-carboxamido)-4-(2,4-dichloro-3-cyanophenyl)thiophene-3-carboxylic acid] |
| < 10 | O=C(Nc1scc(-c2ccc(Br)cc2)c1C(=O)O)c1cc2ccccn2n1 [4-(4-bromophenyl)-2-(pyrazolo[1,5-a]pyridine-2-carboxamido)thiophene-3-carboxylic acid] |
| < 10 | O=C(O)c1c(-c2ccccc2Br)csc1NC(=O)C1CC1 [4-(2-bromophenyl)-2-(cyclopropanecarboxamido)thiophene-3-carboxylic acid] |
| < 10 | O=C(Nc1scc(-c2ccc(Cl)cc2)c1C(=O)O)c1nc2cccc(F)c2s1 [4-(4-chlorophenyl)-2-(7-fluorobenzo[d]thiazole-2-carboxamido)thiophene-3-carboxylic acid] |
| < 10 | O=C(Nc1scc(-c2ccc(Cl)cc2)c1C(=O)O)c1nc2c(F)cccc2s1 [4-(4-chlorophenyl)-2-(4-fluorobenzo[d]thiazole-2-carboxamido)thiophene-3-carboxylic acid] |
| < 10 | O=C(Nc1scc(-c2ccc(Cl)cc2)c1C(=O)O)c1nnc2ccccc2n1 [2-(benzo[e][1,2,4]triazine-3-carboxamido)-4-(4-chlorophenyl)thiophene-3-carboxylic acid] |
| < 10 | O=C(COc1ccccc1)Nc1scc(-c2ccc(Cl)cc2)c1C(=O)O [4-(4-chlorophenyl)-2-(2-phenoxyacetamido)thiophene-3-carboxylic acid] |
| < 10 | O=C(CCc1cccc(F)c1)Nc1scc(-c2ccc(Br)cc2)c1C(=O)O [4-(4-bromophenyl)-2-(3-(3-fluorophenyl)propanamido)thiophene-3-carboxylic acid] |

| IC50 [µM] | Structure (SMILES) |
| --- | --- |
| < 10 | O=C(Nc1scc(-c2ccc(Cl)c(C(F)(F)F)c2)c1C(=O)O)c1nc2ccccc2o1 [2-(benzo[d]oxazole-2-carboxamido)-4-(4-chloro-3-(trifluoromethyl)phenyl)thiophene-3-carboxylic acid] |
| < 10 | Cc1ccc(-c2csc(NC(=O)c3cc4c(Cl)cc(Cl)cc4[nH]3)c2C(=O)O)cc1 [2-(4,6-dichloro-1H-indole-2-carboxamido)-4-p-tolylthiophene-3-carboxylic acid] |
| < 10 | O=C(O)c1c(-c2ccc(Cl)cc2)csc1NC(=O)C1CCc2ccccc2C1 (stereo not shown) [4-(4-chlorophenyl)-2-(1,2,3,4-tetrahydronaphthalene-2-carboxamido)thiophene-3-carboxylic acid] |
| < 10 | Cc1ccc(-c2csc(NC(=O)c3ccc4snnc4c3)c2C(=O)O)c(F)c1F [2-(benzo[d][1,2,3]thiadiazole-5-carboxamido)-4-(2,3-difluoro-4-methylphenyl)thiophene-3-carboxylic acid] |
| < 10 | O=C(CCc1cccc(F)c1)Nc1scc(-c2ccc(Cl)cc2)c1C(=O)O [4-(4-chlorophenyl)-2-(3-(3-fluorophenyl)propanamido)thiophene-3-carboxylic acid] |
| < 10 | COc1c(F)ccc(-c2csc(NC(=O)c3nc4ccccc4o3)c2C(=O)O)c1F [2-(benzo[d]oxazole-2-carboxamido)-4-(2,4-difluoro-3-methoxyphenyl)thiophene-3-carboxylic acid] |
| < 10 | O=C(O)c1c(-c2ccc(Cl)cc2)csc1NC(=O)C1Cc2ccc([N+](=O)[O-])cc2C1 (stereo not shown) [4-(4-chlorophenyl)-2-(5-nitro-2,3-dihydro-1H-indene-2-carboxamido)thiophene-3-carboxylic acid] |
| < 10 | O=C(O)c1c(-c2ccc(Cl)cc2)csc1NC(=O)[C@@H]1CCc2ccccc2C1 [(R)-4-(4-chlorophenyl)-2-(1,2,3,4-tetrahydronaphthalene-2-carboxamido)thiophene-3-carboxylic acid] |
| < 10 | O=C(Nc1scc(-c2ccc(Br)cc2)c1C(=O)O)OCc1ccccc1 [2-(benzyloxycarbonylamino)-4-(4-bromophenyl)thiophene-3-carboxylic acid] |
| < 10 | CC(C(=O)Nc1scc(-c2ccc(Br)cc2)c1C(=O)O)C(C)c1ccccc1 (stereo not shown) [4-(4-bromophenyl)-2-(2-methyl-3-phenylbutanamido)thiophene-3-carboxylic acid] |
| < 10 | O=C(O)c1c(-c2ccc(Cl)cc2)csc1NC(=O)C(F)Cc1c(Cl)cccc1Cl (stereo not shown) [4-(4-chlorophenyl)-2-(3-(2,6-dichlorophenyl)-2-fluoropropanamido)thiophene-3-carboxylic acid] |
| < 10 | O=C(O)c1c(-c2ccc(Br)cc2)csc1NC(=O)C(F)Cc1cc(F)c(F)cc1Cl (stereo not shown) [4-(4-bromophenyl)-2-(3-(2-chloro-4,5-difluorophenyl)-2-fluoropropanamido)thiophene-3-carboxylic acid] |
| < 10 | O=C(Nc1scc(-c2ccc(C3CC3)c(F)c2F)c1C(=O)O)c1cc2ccccc2o1 [2-(benzofuran-2-carboxamido)-4-(4-cyclopropyl-2,3-difluorophenyl)thiophene-3-carboxylic acid] |
| < 10 | O=C(Nc1scc(-c2ccc(Br)cc2)c1C(=O)O)c1nc2cc(Cl)ccc2o1 [4-(4-bromophenyl)-2-(5-chlorobenzo[d]oxazole-2-carboxamido)thiophene-3-carboxylic acid] |
| < 10 | COc1cc(C(F)(F)F)ccc1-c1csc(NC(=O)c2nc3ccccc3o2)c1C(=O)O [2-(benzo[d]oxazole-2-carboxamido)-4-(2-methoxy-4-(trifluoromethyl)phenyl)thiophene-3-carboxylic acid] |
| < 10 | O=C(Nc1scc(-c2ccc(Cl)c(F)c2F)c1C(=O)O)c1cc2ccccc2o1 [2-(benzofuran-2-carboxamido)-4-(4-chloro-2,3-difluorophenyl)thiophene-3-carboxylic acid] |
| < 10 | O=C(Nc1scc(-c2ccc(Cl)cc2)c1C(=O)O)c1cc2sccc2[nH]1 [4-(4-chlorophenyl)-2-(4H-thieno[3,2-b]pyrrole-5-carboxamido)thiophene-3-carboxylic acid] |
| < 10 | O=C(Nc1scc(-c2ccc(Cl)cc2)c1C(=O)O)c1cn2ccsc2n1 [4-(4-chlorophenyl)-2-(imidazo[2,1-b]thiazole-6-carboxamido)thiophene-3-carboxylic acid] |
| < 10 | O=C(Nc1scc(-c2ccc(Cl)cc2)c1C(=O)O)c1cc2c(Cl)cc(Cl)cc2[nH]1 [4-(4-chlorophenyl)-2-(4,6-dichloro-1H-indole-2-carboxamido)thiophene-3-carboxylic acid] |
| < 10 | O=C(Nc1scc(-c2ccc(Cl)cc2)c1C(=O)O)c1cnn(-c2ccccc2)c1C(F)(F)F [4-(4-chlorophenyl)-2-(1-phenyl-5-(trifluoromethyl)-1H-pyrazole-4-carboxamido)thiophene-3-carboxylic acid] |
